In BindingDB's records for doi:10.1021/jm5015814 (Slovak Academy of Sciences, 2015):

Target: Aldehyde reductase AKR1A1 (Rattus norvegicus)
Assay: Inhibition of Wistar rat kidney aldehyde reductase using D-glucuronate as substrate by spectrophotometry

IC50 [µM]	SMILES
19.6	CCCNC(=O)CSc1nnc2c3cc(C)ccc3n(CC(=O)O)c2n1
68.4	CC(C)(C)C(=O)c1cn(CC(=O)O)c2ccccc12
24.8	O=C(O)Cn1c2ccccc2c2nc3ccccc3nc21
80.2	O=C(O)Cn1ccc2ccccc21 [CHEBI:72814]
